This note sets out measurements from a melting point compilation (Tetko et al.; mined from patent text by program, amines drawn as free bases though some values may be those of a salt).

Usually melting point stands for the temperature, or range, at which the solid turns liquid.

Structures are written as SMILES.

With `COc1cc2c(cc1-c1ccccc1)c1cc(-c3ccccc3)c(OC)cc1n2CCC(C)CCCC(C)C` (centres undefined), the melting point was 119 °C.

For the compound `N#Cc1cnccc1CCCOc1cccnc1Oc1cccc(Cl)c1`, the melting point lay in the range of 146 to 150 °C.

The compound `CCOc1ccccc1OCCN(CCCC(OCC)c1ccc(F)cc1)C(C)=O` (centres undefined) had a melting point of 58 to 60 °C.

For `CCC(CC)c1nn(-c2ccc(Cl)cn2)cc1CCCOc1c(C)cccc1CC(=O)O`, the melting point lay in the range of 106 to 107 °C.

As to `CCC(O)(CO)c1ccc(OCc2ccc3ccccc3c2)c(OC)c1` (centres undefined), the melting point stood at 120 °C.

Turning to `O=C(Nc1cc(C(F)(F)F)ccc1Cl)Nc1cc(Cl)cc(Br)c1O`, the melting point lay within 261 to 274 °C.

Compound `CSc1ccc(-c2nn(Cc3cccnc3)c(=S)cc2-c2ccc(Cl)cc2)cc1` displayed a melting point of 130 to 131 °C.

`Cc1oc(C=Cc2ccc(Cl)cc2)nc1CC(=O)O`: the melting point was 157 to 158 °C.

`CC(=O)OCC1OC(n2cc(C3=C(c4c[nH]c5ncccc45)C(=O)N(COCc4ccccc4)C3=O)c3cccnc32)C(OC(C)=O)C(OC(C)=O)C1OC(C)=O` (centres undefined): the melting point lay in the range of 127 to 129 °C.

The compound `O=C(NCc1cccs1)C1CCCCC1` displayed a melting point of 105 °C.

For the compound `COc1ccc(-n2cnc3ccc(-c4nnc(NCc5cccc(F)c5)o4)cc32)cc1`, the melting point lay within 164 to 166 °C.

In turn, `CCCNc1nc(N)nc(-c2ccccc2)c1-c1ccc(=O)n(C(C)C)n1` came in with a melting point of 209 to 212 °C.

With `CCCCC[C@H]1CC[C@H](CCC2CCC(c3ccc(Oc4ccc(N)cc4)cc3)(c3ccc(Oc4ccc(N)cc4)cc3)CC2)CC1`, the melting point was 171 to 172 °C.

In turn, `NC(=O)N1c2ccccc2C=C(Cl)c2ccccc21` came in with a melting point of 183 to 185 °C.

`COc1ccc(C2=NNC(=O)CC2)cc1N` returned a melting point of 218 to 220 °C.

On to `O=S(=O)(NCCc1ccc(C(O)CCCO)cc1)c1ccccc1Cl` (centres undefined), for which the melting point is 101 °C.

The compound `COc1ccc(C(=O)Oc2ccc(C(=O)O)cc2F)cc1C12CC3CC(CC(C3)C1)C2` returned a melting point of 258 to 260 °C.

With `COc1cc(C(=O)CBr)cc(C#N)c1OC`, the melting point was in the range of 138 to 141 °C.

Turning to `CCn1cc(C(=O)NCCCN(C)C)c(=O)c2ccc(I)cc21`, the melting point was 161 to 162 °C.

Compound `CCCCn1c(=O)c(NC(=O)Nc2cc(CO)ccc2C(C)(C)C)c(-c2cccc(OC)c2)c2cccnc21` yielded a melting point of 102 to 105 °C.

With `CC(=O)Nc1nc(NC(C)=O)nc(-c2ccc(-c3ccccc3)cc2)n1`, the melting point was more than 260 °C.

`Nc1nonc1-c1nc2ccccc2n1COc1ccccc1` registered a melting point of 171 to 173 °C.

Turning to `O=C(Nc1c[nH]nc1C(=O)NCC(F)(F)F)c1ccccc1`, the melting point lay within 203 to 206 °C.

Compound `Cc1nnc2ccc(-c3cccc(N)c3)nn12` returned a melting point of 193 °C.

For the compound `CCOC(=O)C1CCN(c2cc(-c3ccc(Cl)cc3)nc3ccccc23)CC1`, the melting point was in the range of 124 to 126 °C.

Regarding `FC(F)Oc1ccc(C2=NNCC2c2ccccc2)cc1` (centres undefined), the melting point lay in the range of 65 to 75 °C.

On to `Cn1cc(CNC(=O)c2ccnc(N3CCN(Cc4ccc(F)cc4)C3=O)c2)cn1`, for which the melting point is 165 to 166 °C.

For the compound `C=CCN(CC=C)Cc1nc(-c2ncn3c2[C@@H]2CCN2C(=O)c2cc(F)ccc2-3)no1`, the melting point was in the range of 100 to 105 °C.

The compound `CC(O)C(CO)(Cc1cc(C(C)(C)C)c(O)c(C(C)(C)C)c1)Cc1cc(C(C)(C)C)c(O)c(C(C)(C)C)c1` (centres undefined) gave a melting point of 145 to 150 °C.

Regarding `Cc1cc(C)n2nc(S(=O)(=O)Nc3c(Cl)ccc(C)c3Cl)nc2n1`, the melting point fell in the range of 286 to 288 °C.

In turn, `COc1ccc2[nH]c(C(C)=NO)cc2c1` returned a melting point of 148 to 150 °C.

`C(=C\c1cc(/C=C/c2ccc3cc[nH]c3c2)n[nH]1)/c1cccc(OCc2ccccn2)c1` returned a melting point of 193 to 195 °C.

In turn, `CS(=O)(=O)O[C@@H](CO)[C@H](Cc1ccccc1)NC(=O)OCc1ccccc1` displayed a melting point of 121 to 122 °C.

As for `CC(C)NC(=O)NC/C=C\COc1cc(CN2CCCCC2)ccn1`, the melting point was in the range of 90 to 92 °C.

`O=c1oc2ccc(F)cc2c(CBr)c1Br`: the melting point is 125 to 127 °C.

`CCOC(=O)c1cc(C(C)C)n(C)n1` displayed a melting point of 70.5 to 71 °C.

Compound `CC(=Cc1ccc2ccccc2n1)C(=O)NO` returned a melting point of 182 to 183 °C.

Take `ON=Cc1c(-c2ccccc2Cl)ccc2c1OCO2`: the melting point lay within 182 to 183 °C.

Regarding `O=C(O)COc1cccc2c1CCC(CCn1cnc(-c3ccccc3)c1-c1ccccc1)C2` (centres undefined), the melting point was 197 °C.

In turn, `CC1(C)Oc2cc3nonc3cc2C(N2CCC(O[N+](=O)[O-])CC2=O)C1O` (centres undefined) gave a melting point of 186 to 189 °C.

The compound `O=C1CCCn2c(=O)[nH]c3cccc1c32` showed a melting point of 235 °C.

For `O=C(C[C@@H](c1cc(F)cc(F)c1)C(F)(F)F)N1C(=O)OC[C@@H]1Cc1ccccc1`, the melting point was in the range of 127 to 128 °C.

On to `C=C1C(=C)C2C(CCC3(C)C2CCC3(O)C(C)=O)C2(C)CCC(=O)C=C12` (centres undefined), for which the melting point was 274 to 276 °C.

As to `c1ccc(Nc2ncc3cc4ccccc4n3n2)cc1`, the melting point fell in the range of 188 to 193 °C.

With `Cc1ccc(N(c2ccc(-c3ccccc3)cc2)c2ccc(C)c(C)c2)cc1C`, the melting point came out at 114 °C.

With `CCOC(=O)Cc1c(Cl)nc(-c2ccccc2)n1Cc1ccccc1`, the melting point lay in the range of 72 to 73 °C.

As for `Oc1c(Cl)cc(Cn2c(S)nc3ccccc32)cc1Cl`, the melting point is 246 °C.

As to `O=C1C=C(CC2CCCC(C(F)(F)F)C2)C(=O)c2ccccc21` (centres undefined), the melting point was 65 °C.

As for `COC1=C(OC)C(=O)C2=C(CC(CCCCOc3ccc(C(=O)O)cc3)C2)C1=O`, the melting point was 149 to 153 °C.

`CN(C(=O)c1cc(C(F)(F)F)cc(C(F)(F)F)c1)C(CCCC(=O)O)Cc1c[nH]c2ccccc12` (centres undefined) had a melting point of 152 to 157 °C.

Take `CCOC(=O)CC1Nc2ccccc2CC(N)C1=O` (centres undefined): the melting point was 71 to 73 °C.

`CC(=O)C(O)C1OC(n2cc(Br)c(=O)[nH]c2=O)CC1(O)C(C)=O` (centres undefined) showed a melting point of 116 to 120 °C.

Consider `CN1C(=O)CC[C@H]1COc1cccnc1`, for which the melting point lay in the range of 73 to 74 °C.

Compound `COC(=O)CCSC(SCCC(=O)OC)c1cccc(C=Cc2ccc3ccc(Cl)cc3n2)c1` had a melting point of 53 °C.

Take `CCOC(=O)/C=C/c1cn(Cc2ccccc2)nc1OCc1ccc(OCc2nc(-c3ccco3)oc2C)c(OC)c1`: the melting point fell in the range of 147 to 148 °C.

With `O=c1[nH]ncc(Cl)c1-c1ccccc1`, the melting point was in the range of 193 to 195 °C.

In the case of `CC1(C)OCc2cc(Cl)cc(C(=O)c3cn(C(c4ccccc4)(c4ccccc4)c4ccccc4)cn3)c2O1`, the melting point was 200 to 205 °C.

`CCN1CCN(CC)c2cc(Nc3nc(Cl)ncc3Cl)ccc2C1` registered a melting point of 69 to 73 °C.

`CN(C)S(=O)(=O)c1ccc2c(c1)C(=O)c1ccccc1CC2` came in with a melting point of 122 to 124 °C.

`CCCCCCCCCCOc1ccc(-c2ccc(C#CCCC(C)OC(C)=O)cc2)cc1` (centres undefined) showed a melting point of 80 to 82 °C.

Compound `CCOc1cc(C(=O)OC)nc2cc(OC)c3ncccc3c12` gave a melting point of 188 to 190 °C.

In turn, `CCCCCn1c2ccccc2c2cc(C(=O)N3CCOCC3)ccc21` gave a melting point of 99 to 101 °C.

In turn, `Cc1ccc2c(n1)sc1c(O)cnnc12` gave a melting point of more than 300 °C.

For the compound `CCCCCCCCCCOc1csc(-c2ccc(N)cc2)c1OCCCCCCCCCC`, the melting point lay in the range of 64.5 to 65.5 °C.

As to `CCc1cc(NCc2ccc3oc(-c4ccccc4C#N)c(Br)c3c2)n2nccc2n1`, the melting point was 186 to 194 °C.

Take `CCOC(=O)c1c(N=[N+]=[N-])[nH]c(=O)c(I)c1Oc1cc(C)cc(C)c1`: the melting point was in the range of 216 to 218 °C.

Compound `CS(=O)(=O)c1ccc(-c2cc(CO)nn2C2CCCCC2)cc1` had a melting point of 148 °C.

Compound `COC(=O)c1ccc(NC(=O)/C=C/c2c(C)noc2-c2ccccc2)cc1` displayed a melting point of 174 to 175 °C.

Consider `O=C(CNc1ccccc1)c1ccccc1`, for which the melting point lay in the range of 97 to 99 °C.

`CCCNc1c(C#N)cnn1-c1ccc(OC(F)(F)F)cc1Cl`: the melting point was 63 °C.

`O=C1c2ccc(OCCOCCOCCO)cc2C(=O)c2ccc(OCCOCCOCCO)cc21` gave a melting point of 110 °C.

Take `CCOC(=O)c1ncn2c1[C@@H]1CCCN1C(=O)c1cc(F)ccc1-2`: the melting point lay in the range of 194 to 195 °C.

Turning to `O=c1c2ccccc2[nH]c2ccc(O)c(Cl)c12`, the melting point fell in the range of 184 to 191 °C.

Compound `Cc1ccc([N+](=O)[O-])c(OCCOc2cc(C(=O)OC(C)(C)C)ccc2[N+](=O)[O-])c1` had a melting point of 113 to 114 °C.

Compound `Cc1cc(Oc2ccccc2)c(S(C)(=O)=O)cc1C(=O)N=C(N)N` yielded a melting point of 248 to 250 °C.

`CCCCCCCCCCCCCCCCSCC(COS(C)(=O)=O)NC(=O)OC` (centres undefined) showed a melting point of 82 to 83 °C.

The compound `CC(C)(C)NCC(O)c1cc(Cl)c(N)c([N+](=O)[O-])c1` (centres undefined) returned a melting point of 148 to 149 °C.

Consider `CN(N)c1cc(N)nc(N)n1`, for which the melting point lay within 214 to 217 °C.

Regarding `NC(=NO)c1ncn2c1N1CCN=C1c1ccccc1-2`, the melting point was in the range of 209 to 212 °C.

The compound `COC(=O)C1=C(C)NC(C)=C(C(=O)OCCBr)C1c1cccc(Cl)c1Cl` (centres undefined) gave a melting point of 180 to 182 °C.

For the compound `COc1ccc(-c2nc(C(OC)(C(F)(F)F)C(F)(F)F)[nH]c2-c2ccc(OC)cc2)cc1`, the melting point lay in the range of 129 to 131 °C.

`CC(C)NC(=NC#N)Nc1ccc(C2=NNC(=O)CC2C)cc1` (centres undefined) yielded a melting point of 255 °C.

The compound `Ic1nnnn1C1CCCC1` yielded a melting point of 119 °C.

For `N=C(N)N(Cc1ccccc1)c1ccc2c3c(cccc13)CC2`, the melting point lay in the range of 138 to 140 °C.

`Cc1cc(C(=O)Nc2ccc(Cl)nc2)ccc1[N+](=O)[O-]` registered a melting point of 290 °C.

`COC(=O)c1ccc(C)c(-c2cc3cnc(NC4CCOCC4)nc3n(C)c2=O)c1` came in with a melting point of 122 to 126 °C.

`CCN(CC)C(=O)Cc1c(C)n(Cc2ccccc2)c2ccc(OCc3nc4ccccc4s3)cc12` gave a melting point of 111 to 112 °C.

`CC(Cc1ccc(O)cn1)NC1CC1` (centres undefined) returned a melting point of 161 °C.

As for `CC(C)n1c(=O)nc(N(C)C)[nH]c1=O`, the melting point is 213 to 214 °C.
